# Entries after “also recorded” stand apart in the source; their conditions may differ.
# Legend:
# GIT1-GFP = GIT1-GFP (Homo sapiens, UniProt Q9Y2X7); experiment: MST binding to GIT1-GFP
# RKO cells [1] = experiment: MTT assay in RKO cells; format: cell-based; conditions: Homo sapiens
# Protocol: (§1) The inventors identified nine inhibitors and perfomed an EdU assay after treating non-malignant (HEK293, AML12) and malignant (HepG2, MzChA-1, HT-29, RKO) cells with varying concentrations of GIT1 inhibitor for 24 hours (results are mean±SE from 3 independent experiments done in duplicates, *p<0.05 vs. DMSO). An MTT assay was also performed after treating primary human and mouse hepatocytes and liver and colon cancer cells with varying concentrations of GIT1 inhibitor for 24 hours (results are mean±SE from 3 independent experiments done in duplicates, *p<0.05 vs. DMSO). […] Percoll may be used to remove dead human hepatocytes.
# HepG2 cells [2] = experiment: MTT assay in HepG2 cells; format: cell-based; conditions: Homo sapiens
# Protocol: as §1
# [3] = tested on: malignant (HepG2, MzChA-1, HT-29, RKO) cells; experiment: EdU/MTT growth assay in cancer cells; format: cell-based
# Protocol: as §1
# RKO cells [4] = experiment: Cell cycle flow cytometry RKO; format: cell-based, human; conditions: 1-5 μM, 24 hours
# HEK293 cells = experiment: Cell cycle flow cytometry HEK293; format: cell-based; conditions: 1-5 μM, 24 hours
# HepG2 cells [5] = experiment: Annexin V-FITC/propidium iodide assay HepG2; format: cell-based; conditions: 5 μM, 24-48 hours
# Protocol: (§2) FIG. 8 depicts, in accordance with various embodiments of the invention, results of an annexin V-FITC/propidium iodide binding assay performed in human and mouse hepatocytes, AML12, HEK293, HepG2, and RKO cells after treatment with 5 μM of a GIT1 inhibitor or DMSO for 24-48 hours (results are shown as mean±SE from at least 3 experiments. *p<0.05 vs. DMSO).
# (§3) An annexin V-FITC/propidium iodide (PI) binding assay was performed with flow cytometry. […] Both G2/M arrest and cell death are mechanisms by which compound C3 inhibits cancer cells' growth.
# mouse hepatocytes = experiment: Annexin V-FITC/propidium iodide assay mouse hepatocytes; format: cell-based; conditions: 5 μM, 24-48 hours
# Protocol: as §2, §3
# RKO cells [6] = experiment: Migration assay RKO; format: cell-based, human; conditions: 1 μM, 24 hours
# GIT1-MAT2B = GIT1-MAT2B (Homo sapiens, UniProt Q9Y2X7); experiment: Co-IP MAT2B-GIT1 interaction in HepG2 cells; format: cell-based; conditions: HepG2, 10 μM, 24 hours
# GIT1-MAT2B, sequence (Q9Y2X7 whole entry): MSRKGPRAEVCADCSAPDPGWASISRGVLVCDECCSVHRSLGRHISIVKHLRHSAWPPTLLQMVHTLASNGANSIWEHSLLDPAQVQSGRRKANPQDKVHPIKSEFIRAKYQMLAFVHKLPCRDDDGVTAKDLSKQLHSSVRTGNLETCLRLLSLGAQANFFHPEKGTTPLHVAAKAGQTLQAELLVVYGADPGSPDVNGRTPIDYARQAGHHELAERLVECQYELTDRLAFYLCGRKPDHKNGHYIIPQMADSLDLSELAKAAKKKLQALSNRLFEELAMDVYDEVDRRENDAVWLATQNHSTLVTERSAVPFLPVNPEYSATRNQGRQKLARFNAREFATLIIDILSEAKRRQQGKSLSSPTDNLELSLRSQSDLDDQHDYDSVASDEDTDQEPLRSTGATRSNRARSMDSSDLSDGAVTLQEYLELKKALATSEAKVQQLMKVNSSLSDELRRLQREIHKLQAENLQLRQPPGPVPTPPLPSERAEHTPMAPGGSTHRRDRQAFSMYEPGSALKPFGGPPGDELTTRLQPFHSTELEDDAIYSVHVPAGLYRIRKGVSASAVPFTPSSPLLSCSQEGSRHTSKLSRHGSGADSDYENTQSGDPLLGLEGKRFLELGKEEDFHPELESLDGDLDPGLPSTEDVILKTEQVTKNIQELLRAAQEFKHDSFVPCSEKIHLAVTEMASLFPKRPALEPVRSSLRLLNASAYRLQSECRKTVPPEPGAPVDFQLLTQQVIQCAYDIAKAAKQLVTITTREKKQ
# Description: GIT1-MAT2B scaffold complex sequesters and activates RAS/RAF/MEK/ERK signaling.
# MEK and ERK activity = experiment: Western blot ERK and MEK activity in RKO cells; format: cell-based, human; conditions: 2-10 μM, 24 hours
# cyclin B1/CDK1 = experiment: Cyclin B1/CDK1 activation; format: cell-based
# Protocol: HepG2 and RKO cells were treated with 5 μM of compound C3 for 24 hours, followed by co-IP with anti-CDK1 antibody and western blots. […] The densitometric changes are from at least 3 independent experiments in mean±SE; *p<0.05 vs. DMSO. Binding of cyclin BI to CDK1 initiates conformational changes allowing CDK1 to alter its phosphorylation status and to become an active kinase.
# [7] = target: GIT1-cyclin B1 interaction (Homo sapiens, UniProt Q9Y2X7); experiment: Co-IP GIT1-cyclin B1 interaction in HepG2; format: cell-based; conditions: HepG2, 10 μM, 24 h
# GIT1-cyclin B1 interaction, sequence (Q9Y2X7 whole entry): as above
# Protocol: HepG2 cells were treated with compound C3 at 10 μM for 24 h and subjected to co-IP with anti-GIT1 or anti-cyclin B1 and blotted for cyclin B1 and GIT1, ratios of cyclin B1 bound to GIT1 vs. DMSO control are shown, *p<0.05 vs. DMSO from n=3 (FIG. 38B).
# In vitro translated GIT1, recombinant MAT2B, and cyclin B1 (both 0.5 μg) were used to evaluate their direct binding, as shown in the blots of FIG. 18A. Also shown, is the results of (FIG. 18B) treating HepG2 cells with a GIT1 inhibitor at 10 μM for 24 hours and subjected to co-IP with anti-GIT1 or cyclin B1 antibody and immunoblotted for cyclin BI and GIT1. In vitro translated GIT1, recombinant MAT2B, and cyclin B1 (both 0.5 μg) were used to evaluate their direct binding. The ratio of cyclin BI bound to GIT1 was compared to DMSO control.
# MC38 cells = experiment: Syngeneic subcutaneous MC38 mouse model; format: in vivo, C57/BL6 mouse
# Protocol: MC38 cells were injected subcutaneously in both flanks. Compound C3 and DMSO were injected intratumorally every other day at 100 μM (5×IC50) starting at day 7 when the tumors averaged 0.5 cm in diameter. Tumor size was measured by caliper, with the tumor volume calculated according to the formula: (π/6)*(length*width*height). Each mouse received compound C3 injection in tumors on one flank and DMSO in the contralateral tumor. Animals were sacrificed on day 13.
# RKO cells [8] = experiment: RKO growth in liver of nude mice; format: in vivo; conditions: 25 mg/kg ip daily for 5 days
# Protocol: FIG. 39A-FIG. 39D depicts, in accordance with various embodiments of the invention, compound C3 inhibits human CRC growth in liver. RKO cells (2×10^6) stably expressing luciferase were injected into the liver of nude mice. Twenty days later (day 0) DMSO and compound C3 were injected intraperitoneally (ip) in FIG. 39A pilot experiment using 10 mg/kd/d×5 days, rest 2 days and repeat. FIG. 39B 25 mg/kg daily for 5 days and imaged on day 7 using IVIS Spectrum photon-counting device optical imaging system (Xenogen, Alameda, CA.). FIG. 39C graph summarizes luciferase intensity from FIG. 39B. FIG. 39D gross pictures of the livers at day 7 from FIG. 39B, point to tumors *p<0.05.
# Compound C3 powder was dissolved in pure DMSO at 50 mg/ml, as a stock store in-80 °C. Stock solution was dissolved in 200 μl 0.9% saline to reach 25 mg/kg. For control group, DMSO was dissolved in 200 μl saline to achieve a concentration of DMSO in saline of 7.5%. RKO cells (2×106) stably expressing luciferase were injected directly into the liver of nude mice. Twenty days later DMSO and Compound C3 were injected intraperitoneally (ip) at a dose of 25 mg/kg daily for 5 days and imaged on day 7.
# [9] = 100 μM intratumorally every other day
# [10] = 100 μM intratumorally, western blot
# GIT1-GFP, sequence (Q9Y2X7 1-770 isoform Q9Y2X7-3): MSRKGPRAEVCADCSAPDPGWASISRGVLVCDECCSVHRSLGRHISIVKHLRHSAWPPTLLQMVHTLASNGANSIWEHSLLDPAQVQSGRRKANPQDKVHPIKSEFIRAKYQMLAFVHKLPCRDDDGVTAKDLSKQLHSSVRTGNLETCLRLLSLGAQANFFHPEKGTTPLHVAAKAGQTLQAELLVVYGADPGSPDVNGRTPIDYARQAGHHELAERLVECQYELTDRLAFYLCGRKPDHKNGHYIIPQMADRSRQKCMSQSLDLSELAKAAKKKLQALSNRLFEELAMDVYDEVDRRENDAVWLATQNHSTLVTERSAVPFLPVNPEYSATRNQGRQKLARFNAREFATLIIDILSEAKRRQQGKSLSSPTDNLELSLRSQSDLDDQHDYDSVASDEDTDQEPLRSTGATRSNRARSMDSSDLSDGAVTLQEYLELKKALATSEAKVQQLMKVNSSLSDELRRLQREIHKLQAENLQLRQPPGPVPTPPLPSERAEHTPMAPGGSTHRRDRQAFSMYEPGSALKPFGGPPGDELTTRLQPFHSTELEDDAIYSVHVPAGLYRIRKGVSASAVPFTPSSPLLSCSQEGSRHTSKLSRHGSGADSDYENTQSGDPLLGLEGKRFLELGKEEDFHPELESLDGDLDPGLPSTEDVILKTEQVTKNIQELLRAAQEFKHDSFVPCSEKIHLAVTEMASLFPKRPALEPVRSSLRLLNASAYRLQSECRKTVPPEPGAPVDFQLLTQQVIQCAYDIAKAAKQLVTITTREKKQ
smiles,measurement,setting,value
"CC1(C)Cc2nc3sc4c(=O)n(CC(=O)NCc5ccco5)cnc4c3cc2CO1 [Compound C3, 2-(8,8-Dimethyl-4-oxo-7,10-dihydro-8H-pyrano[3″,4″: 5′,6′]pyrido[3′,2′: 4,5]thieno[3,2-d]pyrimidin-3 (4H)-yl)-N-(2-furylmethyl) acetamide]",Kd,GIT1-GFP,6.2 µM
same,binding to GIT1-GFP,GIT1-GFP,binds to GIT1-GFP
same,IC50,RKO cells [1],~20 µM
same,IC50,HepG2 cells [2],~20 µM
same,apoptosis in cancer cells (FIG. 33),[3],slight increase in apoptosis
same,cytotoxicity in cancer cells,"[3]; 10 μM, 24 hours",cytotoxic in cancer cells at 10 μM
same,growth inhibitory effect,"[3]; 24 hours, among nine inhibitors",most potent growth inhibitory effect
same,"G2/M phase, RKO",RKO cells [4],G2/M phase was significantly increased
same,"percentage of cells in G1 phase, RKO",RKO cells [4],lowered the percentage of cells in G1 phase
same,"G2/M arrest, HEK293",HEK293 cells,did not occur
same,"apoptosis, HepG2",HepG2 cells [5],significant apoptosis
same,"necrosis, HepG2",HepG2 cells [5],significant necrosis
same,"cell death, mouse hepatocytes",mouse hepatocytes,does not induce cell death
same,migration of RKO cells,RKO cells [6],significant inhibition in migration
same,GIT1-MAT2B scaffold formation,GIT1-MAT2B,disrupted GIT1-MAT2B scaffold formation
same,"ERK and MEK activities, RKO",MEK and ERK activity,lower
same,cyclin B1/CDK1 activation,cyclin B1/CDK1,activated cyclin B1/CDK1
same,GIT1-cyclin B1 interaction,[7],promotes their interaction; also recorded: enhances GIT1-cyclin BI interaction
same,H&E of tumors,MC38 cells; [9],spindle MC38 tumor cells turned into small round cells
same,H&E staining of major organs,MC38 cells; [9],no tissue damage or toxicity
same,PCNA staining in tumors,MC38 cells; [9],dramatic effect in reducing its staining
same,TUNEL assay of tumors,MC38 cells; [9],more apoptopic cells
same,body weights,MC38 cells; [9],not significantly different
same,"tumor growth, subcutaneous","MC38 cells; 100 μM intratumorally every other day from day 7, day 13",inhibits colon cancer growth
same,MEK1/2 activity in tumors,MC38 cells; [10],decreased MEK1/2 activity
same,cyclin D1 level in tumors,MC38 cells; [10],less cyclin D1 level
same,overt toxicity,RKO cells [8],without causing overt toxicity
same,tumor growth in liver,RKO cells [8]; imaged day 7,effective in reducing tumor growth

# From patent US20260356849A1, “COMPOUNDS AND METHODS FOR TREATING CANCERS” (CEDARS-SINAI MEDICAL CENTER, priority 2022, published 2026)
